Results: patent US5990326A, “3-oxiranyl benzoic acids and derivatives thereof” (G.D. Searle & Co., priority 1992, dated 1999)
Structures can show the parent of a compound that is named as a salt.

Key:
[1] = biological target: T1, LTA4 hydrolase (Rattus norvegicus, UniProt P30349); assay: Leukotriene-A4 (LTA4) Hydrolase Enzyme Assay (inhibition of LTB4 production by rat neutrophil cytosol, RIA); type: biochemical, rat (male Sprague Dawley); details: for inhibition at 100 µM: 10^-4 M; for IC50: rat neutrophil cytosolic LTA4 hydrolase
T1 construct: the supernatant containing cytosolic LTA4 hydrolase was obtained; from tissue; host or cells: peritoneal neutrophils (90-95% pure, oyster-glycogen elicited) of male Sprague Dawley rats; 100,000 x G supernatant of the homogenate
T1 sequence (P30349 1-611): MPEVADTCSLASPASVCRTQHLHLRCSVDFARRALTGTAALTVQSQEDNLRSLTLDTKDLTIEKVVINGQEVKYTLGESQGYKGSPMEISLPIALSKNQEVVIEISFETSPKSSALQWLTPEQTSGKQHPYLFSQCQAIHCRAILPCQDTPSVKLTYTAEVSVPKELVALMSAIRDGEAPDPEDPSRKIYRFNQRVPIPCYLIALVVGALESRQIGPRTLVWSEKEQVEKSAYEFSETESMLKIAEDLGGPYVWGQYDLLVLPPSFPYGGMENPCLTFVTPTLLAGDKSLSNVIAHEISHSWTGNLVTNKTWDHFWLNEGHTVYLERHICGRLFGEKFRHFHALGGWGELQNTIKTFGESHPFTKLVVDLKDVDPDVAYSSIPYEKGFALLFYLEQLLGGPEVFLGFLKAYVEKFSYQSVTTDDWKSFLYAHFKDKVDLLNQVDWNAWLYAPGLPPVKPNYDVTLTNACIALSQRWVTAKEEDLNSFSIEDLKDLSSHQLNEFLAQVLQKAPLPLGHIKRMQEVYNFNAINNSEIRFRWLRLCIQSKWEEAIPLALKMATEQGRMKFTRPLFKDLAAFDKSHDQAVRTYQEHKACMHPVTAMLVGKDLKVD
From the text: Leukotriene --A4 Hydrolase Inhibition Materials
Leukotriene-A4 -methyl ester and leukotriene-A3 were purchased from Biomol (Cambridge). Trans-stilbene oxide, EDTA, phenylmethyl sulphonyl fluoride were purchased from Sigma (St. Louis). Eagles Basil Media was purchased from GIBCO (Grand Island). LTB4 radioimmunoassay kit was purchased from Amersham (Arlington Heights, Ill.) (#Trk. 840).
Methods were modified from those reported by Evans et al., Biochem. Biophys. Acta, 840:43-50 (1985).
Male Sprague Dawley (CD1) rats (250-400 gm bodyweight) were given oyster glycogen, 1 mg/ml in 0.9% NaCl, by intraperitoneal injection. The animals were sacrificed after 8-20 hours and the peritoneal cavity washed with 10 ml Eagles Basil Medium (pH 7.4, 25 mM HEPES, without glutamine). The collected peritoneal lavage fluid was centrifuged at 150×G, 15 minutes at 4° C. to isolate the neutrophils. The supernatant was removed and the cell pellet was resuspended in 20 cc 10 mM sodium phosphate buffer, pH 7.0 with 2 mM Na-EDTA and 1 mM phenylmethyl sulphonyl fluoride (PMSF).
Leukotriene-A4 Hydrolase Isolation
The cell suspensions, which were 90-95% neutrophils as determined by cytometry, were homogenized by a polytron at 4° C. with three 30 second bursts with cooling on ice in between. The homogenate was centrifuged at 100,000×G for 60 minutes, and the supernatant containing cytosolic LTA4 hydrolase was obtained.
LTA4 Methyl Ester Deesterificaiton
LTA4, the substrate for LTA4 hydrolase, is supplied as the stable methyl ester that must be hydrolized to the active form. LTA4 -methyl ester (5000 ng) was dried under a stream of super-dry Argon (Matheson) to which was added a 1 ml methanol: 10M NaOH (9.8:0.2 v/v). The mixture was stirred 3 hours at 4° C. and used immediately.
LTA4 Hydrolase Enzyme Assay
Supernatant containing LTA4 hydrolase, 0.5 ml, was added to 0.5 ml Tris-acetate buffer, pH 7.8, containing 1 mg/ml fatty-acid free BSA. The mixture was incubated 3 minutes at 37° C. with 0.1 ml containing different enzyme inhibitor and test compound concentrations in DMSO. LTA4, 25 ng in 20 μl methanol, was added and incubation with shaking continued at 37° C. for one minute. The reaction was quenched with 2 ml ice-cold ethanol. The quenched mixture was immediately frozen at -76° C. LTB4 levels were determined by radioimmunoassay (RIA) with a validated commercial kit. Various concentrations of potential enzyme inhibitors were evaluated for inhibition of LTB4 production using a standardized amount of enzyme and substrate. The amount of inhibitor necessary to reduce LTB4 production by fifty percent was calculated as the IC50 value for each inhibitor. IC50 values were determined by least square linear regression analysis from the average ±SEM for 4 experiments.

[2] = system: A23187-Induced LTB4 Production in Human Promyelocytic Leukemia HL-60 Cells; assay: A23187-Induced LTB4 Production in Human Promyelocytic Leukemia HL-60 Cells (HL-60 Cell Assay); type: cell-based; set-up: key to HL-60 Cell Assay % Inhibition: I: inactive at that concentration; details: for IC50: A23187-stimulated HL-60 cells, LTB4
From the text: A23187-Induced LTB4 Production in Human Promyelocytic Leukemia HL-60 Cells.
Materials: Calcium ionophore A23187 was obtained from Calbiochem (La Jolla, Calif.). Trans-stilbene oxide was obtained from Sigma (St. Louis, Mis.). Hanks' balanced salt solution (HBSS) (10× concentrate), 1M Hepes, and Dulbecco's modified Eagle medium were obtained from GIBCO Laboratories (Grand Island, N.Y.). Fetal bovine serum was obtained from HyClone Laboratories (Logan, Utah). The LTB4 and PGE2 radioimmunoassay antibodies were purchased from Amersham International plc (Amersham, UK) and NEN Research Products (N. Billerica, Mass.), respectively. Reagents for assay of lactate dehydrogenase (LDH) activity were purchased from Beckman (Carlsbad, Calif.).
Preparation of HL-60 Cells: HL-60 cells were cultured in Dulbecco's modified Eagle medium (supplemented with 20% fetal bovine serum, 20 mM Hepes, 100 U/ml penicillin and 100 mcg/ml streptomycin) and maintained at 37° C. in a humidified atmosphere of 5% CO2 in air. Cells from exponentially growing cultures were seeded at 3×10^5 cells/ml and induced to differentiate into granulocytes wth 0.8% (v/v) N,N-dimethylformamide for 4 days (1,2). Prior to assay, differentiated HL-60 cells were washed once with Hanks' balanced salt solution containing 0.35 mg/ml sodium bicarbonate and 10 mM Hepes, pH 7.3 (HBSS) and resuspended in HBSS at a concentration of 3×10^6 cells/ml. HL-60 cell viability was >95% as assessed by trypan blue exclusion.
HL-60 Cell Assay: DMSO or test compounds as 100× concentrates in DMSO were added in duplicate to 1.0 ml HL-60 cell suspensions (3×10^6cells) and preincubated at 37° C. for 10 minutes in a shaking water bath. After an additional 5 minute incubation with calcium ionophore A23187 (10 mcl @ 5×10^-4 M in DMSO), the cells were pelleted at 12,800×g for 15 seconds and the supernatant removed and stored at -20° C. for quantification of LTB4 or PGE2 via radioimmunoassay and LDH activity.
Statistical Methods: LTB4 and PGE2 data were expressed as percent inhibition of A23187-stimulated controls. For IC50 determinations, the 4 parameter logistic model was used where y is the percent inhibition response and x is the log10 concentration of the inhibitor: [formula] Nonlinear regression was performed using the SAS (3) procedure NLIN to obtain least squares estimates of the four parameters in the above equation: yx (maximum), Y0 (minimum), a (log10 IC50) and b (slope factor). Increases in mean LDH levels for A23187-stimulated cells in the presence of test compound were tested for significance using a one-tailed two sample Student's t-test.

Row | SMILES | inhibition at 100 µM [1] [%] | HL-60 Cell Assay % Inhibition ([2]; 10^-5 M) | inhibition at 100 µM ([2]; Homo sapiens, HL-60, 10^-4 M) [%] | HL-60 Cell Assay % Inhibition ([2]; 10^-4 M) | inhibition at 10 µM ([2]; Homo sapiens, HL-60, 10^-5 M) [%] | inhibition at 1 µM ([2]; Homo sapiens, HL-60, 10^-6 M) [%] | IC50 ([2]; Homo sapiens) [nM] | IC50 [1] [nM] | HL-60 Cell Assay % Inhibition ([2]; 10^-6 M) | inhibition at 50 µM ([2]; Homo sapiens, HL-60, 5 × 10^-5 M) [%]
1 | CCCCCCCCCCCCCC[C@@H]1O[C@H]1c1cccc(C(=O)OC)c1 (relative stereo) [Example 22, Methyl 3-(3-tetradecyloxiranyl)benzoate] | 20 | I | 79 |  |  |  |  |  |  | 
2 | CCCCCCCCCCCC/C=C/C1OC1c1cccc(C(=O)OC)c1 (centres unmarked) [Example 1, Methyl 3-[3-(1E-tetradecenyl)oxiranyl]benzoate] |  |  |  | I |  |  |  |  |  | 
3 | CCCCCCCCCCCC/C=C/C1OC1c1cccc(C(=O)O)c1 (centres unmarked) [Example 1,Li^+ salt] | 40 |  | 94 |  | 96 | 26 | 2800 |  |  | 
4 | CCCCCCCCCC/C=C/C=C/C1OC1c1cccc(C(=O)OC)c1 (centres unmarked) [Example 4, Methyl 3-[3-(1E,3E-tetradecadienyl)oxiranyl]benzoate] |  | I | 29 |  |  |  |  |  |  | 
5 | CCCCCCCCCC/C=C/C=C/C1OC1c1cccc(C(=O)O)c1 (centres unmarked) [Example 4,Li^+ salt] | 58 |  | 88 |  | 89 | 77 | 160 | 80000 |  | 
6 | CCCCCCCC/C=C/C=C/C=C/C1OC1c1cccc(C(=O)O)c1 (centres unmarked) [Example 7,Li^+ salt] | 85 |  |  |  | 61 |  | 15000 | 2000 | I | 80
